Activity calls are given as the source filed them. The rule behind the calls is not given here.
What was measured:
[1] = biological target: T1, Lysine-specific demethylase 4A (Homo sapiens, UniProt O75164); assay: Inhibition of JMJD2A (unknown origin)
T1 sequence (O75164 whole entry): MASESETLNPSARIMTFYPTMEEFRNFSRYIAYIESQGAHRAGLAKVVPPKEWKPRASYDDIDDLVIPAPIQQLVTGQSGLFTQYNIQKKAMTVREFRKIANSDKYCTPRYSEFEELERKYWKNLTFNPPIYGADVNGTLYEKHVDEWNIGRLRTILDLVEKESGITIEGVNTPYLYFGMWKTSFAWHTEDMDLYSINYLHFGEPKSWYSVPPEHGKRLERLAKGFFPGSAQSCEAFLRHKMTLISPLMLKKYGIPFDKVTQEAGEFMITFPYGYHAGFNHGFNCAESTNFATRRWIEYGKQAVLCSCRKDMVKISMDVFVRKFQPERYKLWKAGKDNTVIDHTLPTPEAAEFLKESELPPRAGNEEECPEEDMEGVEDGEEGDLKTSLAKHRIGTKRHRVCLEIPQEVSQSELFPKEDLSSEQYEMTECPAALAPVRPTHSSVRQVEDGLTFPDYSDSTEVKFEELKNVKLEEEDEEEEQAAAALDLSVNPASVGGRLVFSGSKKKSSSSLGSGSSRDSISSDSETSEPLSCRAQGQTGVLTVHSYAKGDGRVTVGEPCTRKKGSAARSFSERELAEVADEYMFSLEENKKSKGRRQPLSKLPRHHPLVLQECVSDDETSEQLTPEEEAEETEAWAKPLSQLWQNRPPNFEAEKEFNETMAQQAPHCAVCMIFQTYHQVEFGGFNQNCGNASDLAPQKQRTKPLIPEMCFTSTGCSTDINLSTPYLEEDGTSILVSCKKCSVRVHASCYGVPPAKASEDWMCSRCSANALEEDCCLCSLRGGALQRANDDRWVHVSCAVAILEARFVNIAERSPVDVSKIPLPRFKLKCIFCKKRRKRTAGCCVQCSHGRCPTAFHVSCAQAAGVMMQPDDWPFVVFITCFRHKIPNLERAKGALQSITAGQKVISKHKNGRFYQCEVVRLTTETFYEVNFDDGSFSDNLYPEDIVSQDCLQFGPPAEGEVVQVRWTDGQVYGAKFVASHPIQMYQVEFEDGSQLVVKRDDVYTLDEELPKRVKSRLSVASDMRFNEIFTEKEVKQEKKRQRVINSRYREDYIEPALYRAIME

[2] = biological target: T2, Lysine-specific demethylase 6B (Homo sapiens, UniProt O15054); assay: Inhibition of recombinant 6xHis-tagged JMJD3 (unknown origin) expressed in Escherichia coli BL21
[3] = biological target: T3, Lysine-specific demethylase 4A (Homo sapiens) (UniProt O75164); assay: Binding affinity to JMJD2A (unknown origin) up to 10 uM by fluorescence polarization assay
T3 sequence (whole entry): T1 sequence (O75164 whole entry)

[4] = biological target: T2, Lysine-specific demethylase 6B; assay: Binding affinity to recombinant 6xHis-tagged JMJD3 (unknown origin) expressed in Escherichia coli BL21 up to 10 uM by fluorescence polarization assay
[5] = biological target: T4, Lysine-specific demethylase 2A (Homo sapiens, UniProt Q9Y2K7); assay: Binding affinity to recombinant 6xHis-tagged JHDM1A (unknown origin) expressed in Escherichia coli BL21 by fluorescence polarization assay in presence of Co2+
T4 sequence (Q9Y2K7 whole entry): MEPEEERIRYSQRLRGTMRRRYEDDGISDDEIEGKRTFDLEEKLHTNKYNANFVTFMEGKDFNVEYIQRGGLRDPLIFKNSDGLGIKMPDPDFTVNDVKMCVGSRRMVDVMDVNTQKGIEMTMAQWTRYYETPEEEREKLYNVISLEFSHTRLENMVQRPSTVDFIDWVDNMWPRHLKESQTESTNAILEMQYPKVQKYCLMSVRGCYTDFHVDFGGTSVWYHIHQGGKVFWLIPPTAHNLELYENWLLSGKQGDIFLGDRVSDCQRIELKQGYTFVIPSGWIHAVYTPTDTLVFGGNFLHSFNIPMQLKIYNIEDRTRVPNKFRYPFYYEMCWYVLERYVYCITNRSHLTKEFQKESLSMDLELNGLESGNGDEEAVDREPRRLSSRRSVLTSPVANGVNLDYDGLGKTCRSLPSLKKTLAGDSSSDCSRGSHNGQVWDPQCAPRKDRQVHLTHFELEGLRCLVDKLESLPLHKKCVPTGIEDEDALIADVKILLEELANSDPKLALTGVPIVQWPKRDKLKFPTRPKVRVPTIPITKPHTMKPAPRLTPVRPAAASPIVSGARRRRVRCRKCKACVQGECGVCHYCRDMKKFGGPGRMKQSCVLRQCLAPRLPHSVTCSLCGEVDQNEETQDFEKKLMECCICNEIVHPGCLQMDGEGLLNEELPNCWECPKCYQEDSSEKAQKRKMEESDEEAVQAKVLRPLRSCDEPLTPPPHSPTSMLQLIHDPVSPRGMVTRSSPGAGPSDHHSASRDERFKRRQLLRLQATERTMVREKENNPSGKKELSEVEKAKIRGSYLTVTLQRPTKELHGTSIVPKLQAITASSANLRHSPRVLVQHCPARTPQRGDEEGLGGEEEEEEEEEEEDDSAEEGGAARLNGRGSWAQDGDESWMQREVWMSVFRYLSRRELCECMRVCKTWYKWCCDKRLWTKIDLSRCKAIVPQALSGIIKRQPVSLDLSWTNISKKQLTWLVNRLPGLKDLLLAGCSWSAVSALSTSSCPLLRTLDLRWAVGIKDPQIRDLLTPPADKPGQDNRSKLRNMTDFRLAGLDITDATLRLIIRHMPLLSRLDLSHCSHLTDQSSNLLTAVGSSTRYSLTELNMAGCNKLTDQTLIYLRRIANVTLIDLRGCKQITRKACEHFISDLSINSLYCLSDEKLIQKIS

[6] = biological target: T4, Lysine-specific demethylase 2A; assay: Binding affinity to recombinant 6xHis-tagged JHDM1A (unknown origin) expressed in Escherichia coli BL21 by fluorescence polarization assay in presence of Ni2+
[7] = biological target: T4, Lysine-specific demethylase 2A; assay: Binding affinity to recombinant 6xHis-tagged JHDM1A (unknown origin) expressed in Escherichia coli BL21 by fluorescence polarization assay
[8] = biological target: T4, Lysine-specific demethylase 2A; assay: Inhibition of recombinant 6xHis-tagged JHDM1A (unknown origin) expressed in Escherichia coli BL21 using SAPATGGVK(Me2)KPHRYRPGTVAL as substrate incubated for 15 mins prior to substrate addition measured after 50 mins by rapid fire mass spectrophotometric analysis
[9] = biological target: T4, Lysine-specific demethylase 2A; assay: Binding affinity to recombinant 6xHis-tagged JHDM1A (unknown origin) expressed in Escherichia coli BL21 by fluorescence polarization assay in presence of Fe2+ and sodium ascorbate

T2 sequence (O15054 whole entry): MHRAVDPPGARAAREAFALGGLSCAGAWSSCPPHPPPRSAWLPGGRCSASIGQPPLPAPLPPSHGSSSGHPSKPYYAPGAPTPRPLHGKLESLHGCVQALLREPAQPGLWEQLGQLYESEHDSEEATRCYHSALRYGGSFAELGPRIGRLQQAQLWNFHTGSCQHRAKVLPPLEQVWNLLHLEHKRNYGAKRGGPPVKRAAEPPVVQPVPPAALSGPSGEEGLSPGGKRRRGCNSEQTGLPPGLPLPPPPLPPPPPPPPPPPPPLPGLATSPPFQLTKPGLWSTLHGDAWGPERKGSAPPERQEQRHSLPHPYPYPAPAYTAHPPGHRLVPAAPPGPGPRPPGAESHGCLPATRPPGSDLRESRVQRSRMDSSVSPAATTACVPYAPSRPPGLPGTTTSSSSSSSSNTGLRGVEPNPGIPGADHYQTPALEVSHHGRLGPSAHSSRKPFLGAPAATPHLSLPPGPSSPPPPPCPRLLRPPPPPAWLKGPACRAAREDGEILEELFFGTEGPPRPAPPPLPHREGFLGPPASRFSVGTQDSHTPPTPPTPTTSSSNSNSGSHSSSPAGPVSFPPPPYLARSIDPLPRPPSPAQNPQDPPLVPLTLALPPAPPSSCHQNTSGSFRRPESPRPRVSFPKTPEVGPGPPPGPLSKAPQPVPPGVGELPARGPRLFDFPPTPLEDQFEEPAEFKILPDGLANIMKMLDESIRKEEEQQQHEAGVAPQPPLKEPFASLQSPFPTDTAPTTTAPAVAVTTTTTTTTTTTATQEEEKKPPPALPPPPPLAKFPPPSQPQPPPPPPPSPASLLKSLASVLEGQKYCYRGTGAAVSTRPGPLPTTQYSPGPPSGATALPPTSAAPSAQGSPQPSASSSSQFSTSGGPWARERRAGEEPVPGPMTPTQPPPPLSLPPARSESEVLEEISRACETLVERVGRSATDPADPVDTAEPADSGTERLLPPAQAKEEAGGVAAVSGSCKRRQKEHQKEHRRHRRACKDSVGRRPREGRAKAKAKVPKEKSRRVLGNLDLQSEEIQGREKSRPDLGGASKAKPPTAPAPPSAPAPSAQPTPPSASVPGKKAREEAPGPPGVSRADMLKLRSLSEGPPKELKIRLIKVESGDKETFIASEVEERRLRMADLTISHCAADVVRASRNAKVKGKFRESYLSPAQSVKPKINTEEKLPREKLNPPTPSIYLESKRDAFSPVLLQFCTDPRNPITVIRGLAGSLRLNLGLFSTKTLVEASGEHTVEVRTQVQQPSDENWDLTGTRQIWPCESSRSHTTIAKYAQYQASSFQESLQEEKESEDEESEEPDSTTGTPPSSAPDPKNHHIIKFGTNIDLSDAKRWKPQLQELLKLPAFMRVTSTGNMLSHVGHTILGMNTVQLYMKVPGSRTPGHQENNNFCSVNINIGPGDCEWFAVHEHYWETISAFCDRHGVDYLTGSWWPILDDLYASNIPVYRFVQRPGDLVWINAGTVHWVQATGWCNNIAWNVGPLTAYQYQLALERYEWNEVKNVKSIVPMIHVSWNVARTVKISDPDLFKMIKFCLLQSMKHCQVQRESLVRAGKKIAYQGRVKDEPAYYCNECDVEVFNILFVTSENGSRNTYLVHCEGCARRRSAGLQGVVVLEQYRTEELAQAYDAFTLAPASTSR

Row | IC50 [1] | IC50 [2] | Activity [3] | Activity [4] | Kd [5] | Kd [6] | Kd [7] | IC50 [8] | Kd [9] | SMILES
1 | 3300 nM | 3100 nM |  |  |  |  |  |  |  | O=C(O)/C=C/C(=O)N(O)CCCCNCc1ccc(COC(=O)Nc2cccc3ccccc23)cc1
2 | 23500 nM | 9500 nM | Active | Active | 22 nM | 9.3 nM | 19 nM | 900 nM | 8.6 nM | NCc1ccc(CN(CCCCN(O)C(=O)/C=C/C(=O)O)C(=S)Nc2ccc(-c3c4ccc(=O)cc-4oc4cc(O)ccc34)c(C(=O)O)c2)cc1
3 | 2400 nM | 7300 nM |  |  |  |  |  | 420 nM |  | NCc1ccc(CNCCCCN(O)C(=O)/C=C/C(=O)O)cc1

Source: ChEMBL document CHEMBL2390894, “Quantitative analysis of histone demethylase probes using fluorescence polarization” (J Med Chem, 2013)
